The target in this assay is T1, human 5-HT2C receptor (Homo sapiens, UniProt P28335).
T1 sequence (P28335 33-458): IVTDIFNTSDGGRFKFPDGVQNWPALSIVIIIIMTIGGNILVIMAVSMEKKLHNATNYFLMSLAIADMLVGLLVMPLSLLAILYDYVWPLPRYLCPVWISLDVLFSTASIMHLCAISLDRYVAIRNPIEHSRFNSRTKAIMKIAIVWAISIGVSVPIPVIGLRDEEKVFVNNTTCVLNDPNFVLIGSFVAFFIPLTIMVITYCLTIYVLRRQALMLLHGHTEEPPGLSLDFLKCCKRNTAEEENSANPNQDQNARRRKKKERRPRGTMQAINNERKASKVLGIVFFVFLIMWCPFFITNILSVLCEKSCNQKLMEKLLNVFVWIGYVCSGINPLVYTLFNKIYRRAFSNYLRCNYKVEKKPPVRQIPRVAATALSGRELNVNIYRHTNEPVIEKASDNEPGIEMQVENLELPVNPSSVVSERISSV
As to the kind of experiment: 5-HT2C receptor-stimulated calcium mobilization (FLIPR) in CHO cells.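 As to all read-outs here: Fluo-3-AM fluorescence read on FLIPR every 1 s, agonist added after 10 baseline reads, response taken as peak minus lowest raw fluorescence count.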 The format is cell-based. The settings on record: for Emax: CHO, read-out: 5-HT2C Function Emax (%); for Emax / 5-HT2C Function Emax (%): percentage of the response observed with a maximally effective concentration of 5-HT; for pEC50: calcium mobilization, CHO cells stably expressing human 5-HT2C, read-out: 5-HT2C Function EC50.

pEC50: −log10 of the molar value.

One may read the Emax as the size of the effect at its maximum, as opposed to the concentration needed. By pEC50 is commonly meant −log10 of the EC50, conventionally taken in molar units. Regarding `CNCC1Cc2cc(Cl)cc(-c3cccc(C)c3C)c2O1` (racemic) [Example 465, (±)-{[5-chloro-7-(2,3-dimethylphenyl)-2,3-dihydro-1-benzofuran-2-yl]methyl}methylamine], the Emax turned out to be 60% and the pEC50 is 6.30.

`Fc1cc2c(c(-c3c(Cl)cccc3Cl)c1)OC(CN1CCOCC1)C2` (racemic) [Example 239, (±)-1-{[7-(2,6-dichlorophenyl)-5-fluoro-2,3-dihydro-1-benzofuran-2-yl]methyl}morpholine]: the Emax was determined as 40% and the pEC50 is 5.84.

Regarding `COc1cccc(-c2cc(F)cc3c2OC(CN)C3)c1OC` (single isomer, unassigned; (-)) [Example 213, (−)-{[7-(2,3-dimethoxyphenyl)-5-fluoro-2,3-dihydro-1-benzofuran-2-yl]methyl}amine], the pEC50 is 8.05 and the “5-HT2C Function Emax (%)” value turned out to be 100%.

In the case of `CNCC1Cc2cc(F)cc(-c3c(C)cccc3C)c2O1` (single isomer, unassigned; (+)) [Example 558, (+)-{[7-(2,6-dimethylphenyl)-5-fluoro-2,3-dihydro-1-benzofuran-2-yl]methyl}methylamine], the Emax came out at 70% and the pEC50 is 6.58.

With `Cc1cccc(C)c1-c1cc(Cl)cc2c1OC(CNCC1CC1)C2` (racemic) [Example 268, (±)-N-{[5-chloro-7-(2,6-dimethylphenyl)-2,3-dihydro-1-benzofuran-2-yl]methyl}(cyclopropylmethyl)amine], the Emax was 50% and the pEC50 was 6.02.

In the case of `CNCC1Cc2cccc(-c3cc(F)ccc3F)c2O1` (racemic) [Example 428, (±)-[(N-methyl-1-[7-(2,5-difluorophenyl)-2,3-dihydro-1-benzofuran-2-yl]methanamine], the Emax turned out to be 80% and the pEC50 was 7.16.

Take `CNCC1Cc2cc(F)cc(-c3c(Cl)cccc3Cl)c2O1` (single isomer, unassigned; (-)) [Example 544, (−){[7-(2,6-dichlorophenyl)-5-fluoro-2,3-dihydro-1-benzofuran-2-yl]methyl}methylamine]: the pEC50 is 7.14 and the “5-HT2C Function Emax (%)” value amounted to 70%.

On to `CNCC1Cc2cc(Cl)cc(-c3cccc(Cl)c3Cl)c2O1` (racemic) [Example 464, (±)-{[5-chloro-7-(2,3-dichlorophenyl)-2,3-dihydro-1-benzofuran-2-yl]methyl}methylamine], for which the Emax came out at 70% and the pEC50 is 6.34.

In the case of `CNCC1Cc2cc(Cl)cc(-c3cc(Cl)ccc3Cl)c2O1` (racemic) [Example 471, (±)-{[5-chloro-7-(2,5-dichlorophenyl)-2,3-dihydro-1-benzofuran-2-yl]methyl}methylamine], the maximal response (Emax) was determined as 90% and the pEC50 was 7.85.

As for `Fc1cc2c(c(-c3c(Cl)cccc3Cl)c1)OC(CN1CCCCC1)C2` (racemic) [Example 238, (±)-1-{[7-(2,6-dichlorophenyl)-5-fluoro-2,3-dihydro-1-benzofuran-2-yl]methyl}piperidine], the Emax turned out to be 40% and the pEC50 was 6.28.

In the case of `CNCC1Cc2cccc(-c3ccc(F)cc3F)c2O1` (racemic) [Example 424, (±)-[(N-methyl-1-[7-(2,4-difluorophenyl)-2,3-dihydro-1-benzofuran-2-yl]methanamine], the Emax is 90% and the pEC50 is 7.31.

As for `CNCC1Cc2cc(Cl)cc(-c3cccc(OC)c3OC)c2O1` (racemic) [Example 466, (±)-{[5-chloro-7-(2,3-dimethoxyphenyl)-2,3-dihydro-1-benzofuran-2-yl]methyl}methylamine], the Emax turned out to be 70% and the pEC50 is 7.26.

`CNCC1Cc2cc(Cl)cc(-c3cc(F)ccc3F)c2O1` (racemic) [Example 470, (±)-{[5-chloro-7-(2,5-difluorophenyl)-2,3-dihydro-1-benzofuran-2-yl]methyl}methylamine]: the Emax was 70% and the pEC50 is 6.54.

In the case of `CNCC1Cc2cccc(-c3c(C)cccc3C)c2O1` (racemic) [Example 432, (±)-[(N-methyl-1-[7-(2,6-dimethylphenyl)-2,3-dihydro-1-benzofuran-2-yl]methanamine], the Emax came out at 80% and the pEC50 is 7.14.

Turning to `Fc1cc2c(c(-c3c(Cl)cccc3Cl)c1)OC(CN1CCCC1)C2` (racemic) [Example 240, (±)-1-{[7-(2,6-dichlorophenyl)-5-fluoro-2,3-dihydro-1-benzofuran-2-yl]methyl}pyrrolidine], the Emax is 70% and the pEC50 is 7.05.

For the molecule `CNCC1Cc2cccc(-c3cccc(C)c3C)c2O1` (racemic) [Example 422, (±)-[(N-methyl-1-[7-(2,3-dimethylphenyl)-2,3-dihydro-1-benzofuran-2-yl]methanamine], the Emax came out at 80% and the pEC50 was 6.35.

As for `CNCC1Cc2cccc(-c3cc(C)ccc3C)c2O1` (racemic) [Example 427, (±)-[(N-methyl-1-[7-(2,5-dimethylphenyl)-2,3-dihydro-1-benzofuran-2-yl]methanamine], the Emax came out at 80% and the pEC50 was 6.53.

Consider `Cc1cccc(C)c1-c1cc(Cl)cc2c1OC(CNC(C)C)C2` (racemic) [Example 272, (±)-N-{[5-chloro-7-(2,6-dimethylphenyl)-2,3-dihydro-1-benzofuran-2-yl]methyl}propan-2-amine], for which the Emax was found to be 70% and the pEC50 is 6.07.

For `CCNCC1Cc2cc(F)cc(-c3c(Cl)cccc3Cl)c2O1` (racemic) [Example 234, (±)-N-{[7-(2,6-dichlorophenyl)-5-fluoro-2,3-dihydro-1-benzofuran-2-yl]methyl}ethanamine], the Emax is 90% and the pEC50 was 7.96.

In the case of `CNCC1Cc2cc(C)cc(-c3cccc(OC)c3OC)c2O1` (single isomer, unassigned; (+)) [Example 566, (+)-{[7-(2,3-dimethoxyphenyl)-5-methyl-2,3-dihydro-1-benzofuran-2-yl]methyl}methylamine], the Emax was determined as 70% and the pEC50 is 8.52.

Consider `COc1cccc(-c2cc(C)cc3c2OC(CN)C3)c1OC` (single isomer, unassigned; (+)) [Example 296, (+)-{[7-(2,3-dimethoxyphenyl)-5-methyl-2,3-dihydro-1-benzofuran-2-yl]methyl}amine], for which the pEC50 was 7.30 and the “5-HT2C Function Emax (%)” value is recorded as 80%.

Take `COc1cccc(-c2cc(F)cc3c2OC(CN)C3)c1OC` (single isomer, unassigned; (+)) [Example 214, (+)-{[7-(2,3-dimethoxyphenyl)-5-fluoro-2,3-dihydro-1-benzofuran-2-yl]methyl}amine]: the pEC50 is 7.10 and the “5-HT2C Function Emax (%)” value was found to be 70%.

Consider `CNCC1Cc2cccc(-c3ccc(Cl)cc3Cl)c2O1` (racemic) [Example 425, (±)-[(N-methyl-1-[7-(2,4-dichlorophenyl)-2,3-dihydro-1-benzofuran-2-yl]methanamine], for which the Emax was found to be 100% and the pEC50 was 8.05.

Consider `CNCC1Cc2cc(Cl)cc(-c3ccc(F)cc3F)c2O1` (racemic) [Example 467, (±)-{[5-chloro-7-(2,4-difluorophenyl)-2,3-dihydro-1-benzofuran-2-yl]methyl}methylamine], for which the Emax worked out at 80% and the pEC50 was 6.59.

The values are drawn from US7435837B2, “Dihydrobenzofuranyl alkanamine derivatives and methods for using same” (Wyeth, priority 2003, dated 2008).
